Read-outs that look alike come from different tables or passages of the source.
What was measured:
Assay in all cases: biochemical
Format in all cases: binding
468 kinases [1] = target: 468 kinases (Homo sapiens, UniProt P00533, G719S); settings: EGFR(G719S); read-out: % Inhibition @ 100 nM
468 kinases [2] = target: 468 kinases (Homo sapiens, UniProt Q8IU85); settings: CAMK1D; read-out: % Inhibition @ 100 nM
468 kinases [3] = target: 468 kinases (Homo sapiens, UniProt P53778); settings: p38-gamma; read-out: % Inhibition @ 100 nM
468 kinases [4] = target: 468 kinases (Plasmodium falciparum, UniProt P61075); settings: PFPK5 (P.falciparum); read-out: % Inhibition @ 100 nM
468 kinases [5] = target: 468 kinases (Homo sapiens, UniProt Q6PHR2); settings: ULK3; read-out: % Inhibition @ 100 nM
468 kinases [6] = target: 468 kinases (Homo sapiens, UniProt P51955); settings: NEK2; read-out: % Inhibition @ 100 nM
468 kinases [7] = target: 468 kinases (Homo sapiens, UniProt Q9HBH9); settings: MKNK2; read-out: % Inhibition @ 100 nM
468 kinases [8] = target: 468 kinases (Homo sapiens, UniProt Q99558); settings: NIK; read-out: % Inhibition @ 100 nM
468 kinases [9] = target: 468 kinases (Homo sapiens, UniProt P31152); settings: ERK4; read-out: % Inhibition @ 100 nM
468 kinases [10] = target: 468 kinases (Homo sapiens, UniProt O75716); settings: STK16; read-out: % Inhibition @ 100 nM
468 kinases [11] = target: 468 kinases (Homo sapiens, UniProt Q9P286); settings: PAK7; read-out: % Inhibition @ 100 nM
468 kinases [12] = target: 468 kinases (Homo sapiens, UniProt P00519, F317I); settings: read-out: % Inhibition @ 100 nM
468 kinases [13] = target: 468 kinases (Homo sapiens, UniProt Q92772); settings: CDKL2; read-out: % Inhibition @ 100 nM
468 kinases [14] = target: 468 kinases (Homo sapiens, UniProt P49840); settings: GSK3A; read-out: % Inhibition @ 100 nM
468 kinases [15] = target: 468 kinases (Homo sapiens, UniProt Q5S007); settings: LRRK2; read-out: % Inhibition @ 100 nM
468 kinases [16] = target: 468 kinases (Homo sapiens, UniProt Q9Y3S1); settings: WNK2; read-out: % Inhibition @ 100 nM
468 kinases [17] = target: 468 kinases (Homo sapiens, UniProt P54760); settings: EPHB4; read-out: % Inhibition @ 100 nM
468 kinases [18] = target: 468 kinases (Homo sapiens, UniProt Q99683); settings: ASK1; read-out: % Inhibition @ 100 nM
468 kinases [19] = target: 468 kinases (Homo sapiens, UniProt Q9UQ88); settings: CDC2L2; read-out: % Inhibition @ 100 nM
468 kinases [20] = target: 468 kinases (Homo sapiens, UniProt Q5S007, G2019S); settings: LRRK2(G2019S); read-out: % Inhibition @ 100 nM
468 kinases [21] = target: 468 kinases (Homo sapiens, UniProt Q6ZWH5); settings: NEK10; read-out: % Inhibition @ 100 nM
468 kinases [22] = target: 468 kinases (Homo sapiens, UniProt Q8TD19); settings: NEK9; read-out: % Inhibition @ 100 nM
468 kinases [23] = target: 468 kinases (Homo sapiens, UniProt Q04759); settings: PRKCQ; read-out: % Inhibition @ 100 nM
468 kinases [24] = target: 468 kinases (Homo sapiens, UniProt P29317); settings: EPHA2; read-out: % Inhibition @ 100 nM
468 kinases [25] = target: 468 kinases (Homo sapiens, UniProt P07949); settings: RET; read-out: % Inhibition @ 100 nM
468 kinases [26] = target: 468 kinases (Homo sapiens, UniProt Q16620); settings: TRKB; read-out: % Inhibition @ 100 nM
468 kinases [27] = target: 468 kinases (Homo sapiens, UniProt O15075); settings: DCAMKL1; read-out: % Inhibition @ 100 nM
468 kinases [28] = target: 468 kinases (Homo sapiens, UniProt P10721, D816V); settings: KIT(D816V); read-out: % Inhibition @ 100 nM
468 kinases [29] = target: 468 kinases (Homo sapiens, UniProt P51812); settings: read-out: % Inhibition @ 100 nM
468 kinases [30] = target: 468 kinases (Homo sapiens, UniProt P12931); settings: SRC; read-out: % Inhibition @ 100 nM
468 kinases [31] = target: 468 kinases (Homo sapiens, UniProt Q16539); settings: p38-alpha; read-out: % Inhibition @ 100 nM
468 kinases [32] = target: 468 kinases (Homo sapiens, UniProt Q9UEE5); settings: DRAK1; read-out: % Inhibition @ 100 nM
468 kinases [33] = target: 468 kinases (Homo sapiens, UniProt P32298); settings: GRK4; read-out: % Inhibition @ 100 nM

468 kinases (Homo sapiens, UniProt Q16539), sequence (Q16539 2-360 limits assumed): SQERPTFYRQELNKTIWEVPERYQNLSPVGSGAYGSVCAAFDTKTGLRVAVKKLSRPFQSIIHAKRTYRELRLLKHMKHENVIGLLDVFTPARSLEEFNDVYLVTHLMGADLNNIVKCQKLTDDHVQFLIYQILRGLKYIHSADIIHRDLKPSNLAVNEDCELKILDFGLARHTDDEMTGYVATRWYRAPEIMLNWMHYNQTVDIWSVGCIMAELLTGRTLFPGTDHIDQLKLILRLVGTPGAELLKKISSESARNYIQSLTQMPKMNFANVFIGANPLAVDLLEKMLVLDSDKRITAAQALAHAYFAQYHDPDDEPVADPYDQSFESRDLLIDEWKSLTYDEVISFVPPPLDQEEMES
468 kinases (Homo sapiens, UniProt P49840), sequence (P49840 2-483 limits assumed): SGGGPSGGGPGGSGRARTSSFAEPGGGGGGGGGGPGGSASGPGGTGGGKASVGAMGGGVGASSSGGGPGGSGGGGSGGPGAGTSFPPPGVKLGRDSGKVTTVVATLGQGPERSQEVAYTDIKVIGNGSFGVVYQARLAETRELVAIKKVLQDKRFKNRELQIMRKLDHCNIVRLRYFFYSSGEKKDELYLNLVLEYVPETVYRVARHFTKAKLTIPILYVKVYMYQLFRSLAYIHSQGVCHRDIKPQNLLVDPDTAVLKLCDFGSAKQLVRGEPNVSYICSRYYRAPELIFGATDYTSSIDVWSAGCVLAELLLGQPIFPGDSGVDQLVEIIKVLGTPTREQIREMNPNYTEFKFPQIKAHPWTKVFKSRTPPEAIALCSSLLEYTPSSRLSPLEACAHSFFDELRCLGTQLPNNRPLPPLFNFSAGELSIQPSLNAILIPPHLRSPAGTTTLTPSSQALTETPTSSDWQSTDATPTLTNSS
468 kinases (Homo sapiens, UniProt O75716), sequence (O75716 2-305 limits assumed): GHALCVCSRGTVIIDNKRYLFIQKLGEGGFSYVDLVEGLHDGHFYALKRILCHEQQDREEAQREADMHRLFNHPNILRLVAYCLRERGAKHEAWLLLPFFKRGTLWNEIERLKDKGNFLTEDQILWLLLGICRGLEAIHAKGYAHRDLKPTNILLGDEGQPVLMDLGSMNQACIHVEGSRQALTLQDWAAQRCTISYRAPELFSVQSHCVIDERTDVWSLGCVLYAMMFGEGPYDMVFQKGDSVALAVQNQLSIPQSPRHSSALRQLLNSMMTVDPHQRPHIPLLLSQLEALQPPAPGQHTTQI
468 kinases (Homo sapiens, UniProt P07949), sequence (P07949 29-1114 limits assumed): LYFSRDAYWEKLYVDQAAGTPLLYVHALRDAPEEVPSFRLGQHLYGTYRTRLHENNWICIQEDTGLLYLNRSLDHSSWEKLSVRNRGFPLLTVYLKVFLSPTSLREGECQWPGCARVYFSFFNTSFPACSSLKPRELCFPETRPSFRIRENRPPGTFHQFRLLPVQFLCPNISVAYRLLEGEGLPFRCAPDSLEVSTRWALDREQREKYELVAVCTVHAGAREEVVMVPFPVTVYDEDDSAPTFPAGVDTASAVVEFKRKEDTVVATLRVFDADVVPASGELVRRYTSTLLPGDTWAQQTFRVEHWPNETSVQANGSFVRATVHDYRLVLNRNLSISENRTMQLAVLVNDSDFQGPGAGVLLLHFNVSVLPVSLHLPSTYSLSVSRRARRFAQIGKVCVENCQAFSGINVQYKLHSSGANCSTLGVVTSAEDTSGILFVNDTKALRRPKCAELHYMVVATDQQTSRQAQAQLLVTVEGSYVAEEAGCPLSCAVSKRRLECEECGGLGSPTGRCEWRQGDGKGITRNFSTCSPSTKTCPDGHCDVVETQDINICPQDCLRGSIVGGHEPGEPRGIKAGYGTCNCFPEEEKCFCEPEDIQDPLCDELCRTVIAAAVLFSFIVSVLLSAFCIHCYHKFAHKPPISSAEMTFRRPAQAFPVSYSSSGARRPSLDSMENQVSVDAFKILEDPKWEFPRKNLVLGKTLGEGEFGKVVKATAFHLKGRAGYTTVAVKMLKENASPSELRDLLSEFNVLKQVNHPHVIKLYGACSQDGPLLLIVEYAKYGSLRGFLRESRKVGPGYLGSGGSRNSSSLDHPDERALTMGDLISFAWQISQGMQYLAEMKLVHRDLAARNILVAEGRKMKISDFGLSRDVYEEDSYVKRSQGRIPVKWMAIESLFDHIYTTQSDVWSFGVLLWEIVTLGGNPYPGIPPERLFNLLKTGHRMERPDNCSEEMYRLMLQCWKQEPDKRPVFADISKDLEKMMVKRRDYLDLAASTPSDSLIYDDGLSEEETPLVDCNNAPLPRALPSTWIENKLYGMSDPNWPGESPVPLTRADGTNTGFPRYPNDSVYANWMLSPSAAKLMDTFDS
468 kinases (Homo sapiens, UniProt Q8TD19), sequence (Q8TD19 2-979 limits assumed): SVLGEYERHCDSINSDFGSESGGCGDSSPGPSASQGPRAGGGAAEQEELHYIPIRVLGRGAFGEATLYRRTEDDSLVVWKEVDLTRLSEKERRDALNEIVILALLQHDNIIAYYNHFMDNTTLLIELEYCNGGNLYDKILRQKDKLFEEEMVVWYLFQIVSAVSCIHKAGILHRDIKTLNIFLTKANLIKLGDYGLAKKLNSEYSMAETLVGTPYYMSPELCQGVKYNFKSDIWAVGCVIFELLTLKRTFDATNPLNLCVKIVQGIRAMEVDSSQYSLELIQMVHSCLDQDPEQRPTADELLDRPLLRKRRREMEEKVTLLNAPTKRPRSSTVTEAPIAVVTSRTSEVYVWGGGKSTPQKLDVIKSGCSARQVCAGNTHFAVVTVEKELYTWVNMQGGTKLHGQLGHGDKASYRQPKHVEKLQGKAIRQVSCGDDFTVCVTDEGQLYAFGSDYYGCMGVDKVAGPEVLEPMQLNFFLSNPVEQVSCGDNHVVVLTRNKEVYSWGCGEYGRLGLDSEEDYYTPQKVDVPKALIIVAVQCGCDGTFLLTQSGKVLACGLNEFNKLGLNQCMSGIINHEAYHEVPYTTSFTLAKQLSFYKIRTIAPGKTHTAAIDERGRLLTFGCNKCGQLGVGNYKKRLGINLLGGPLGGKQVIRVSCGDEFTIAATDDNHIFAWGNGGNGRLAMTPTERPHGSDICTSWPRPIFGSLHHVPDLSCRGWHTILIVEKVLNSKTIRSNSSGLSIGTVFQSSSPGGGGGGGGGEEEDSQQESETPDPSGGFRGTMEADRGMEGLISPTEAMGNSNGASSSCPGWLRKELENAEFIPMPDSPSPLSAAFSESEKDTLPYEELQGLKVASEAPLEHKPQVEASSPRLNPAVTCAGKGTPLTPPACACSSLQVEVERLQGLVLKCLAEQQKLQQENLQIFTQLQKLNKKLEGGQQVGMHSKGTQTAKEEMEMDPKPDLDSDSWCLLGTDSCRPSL
468 kinases (Homo sapiens, UniProt P00533, G719S), sequence (P00533 25-1210 G719S limits assumed): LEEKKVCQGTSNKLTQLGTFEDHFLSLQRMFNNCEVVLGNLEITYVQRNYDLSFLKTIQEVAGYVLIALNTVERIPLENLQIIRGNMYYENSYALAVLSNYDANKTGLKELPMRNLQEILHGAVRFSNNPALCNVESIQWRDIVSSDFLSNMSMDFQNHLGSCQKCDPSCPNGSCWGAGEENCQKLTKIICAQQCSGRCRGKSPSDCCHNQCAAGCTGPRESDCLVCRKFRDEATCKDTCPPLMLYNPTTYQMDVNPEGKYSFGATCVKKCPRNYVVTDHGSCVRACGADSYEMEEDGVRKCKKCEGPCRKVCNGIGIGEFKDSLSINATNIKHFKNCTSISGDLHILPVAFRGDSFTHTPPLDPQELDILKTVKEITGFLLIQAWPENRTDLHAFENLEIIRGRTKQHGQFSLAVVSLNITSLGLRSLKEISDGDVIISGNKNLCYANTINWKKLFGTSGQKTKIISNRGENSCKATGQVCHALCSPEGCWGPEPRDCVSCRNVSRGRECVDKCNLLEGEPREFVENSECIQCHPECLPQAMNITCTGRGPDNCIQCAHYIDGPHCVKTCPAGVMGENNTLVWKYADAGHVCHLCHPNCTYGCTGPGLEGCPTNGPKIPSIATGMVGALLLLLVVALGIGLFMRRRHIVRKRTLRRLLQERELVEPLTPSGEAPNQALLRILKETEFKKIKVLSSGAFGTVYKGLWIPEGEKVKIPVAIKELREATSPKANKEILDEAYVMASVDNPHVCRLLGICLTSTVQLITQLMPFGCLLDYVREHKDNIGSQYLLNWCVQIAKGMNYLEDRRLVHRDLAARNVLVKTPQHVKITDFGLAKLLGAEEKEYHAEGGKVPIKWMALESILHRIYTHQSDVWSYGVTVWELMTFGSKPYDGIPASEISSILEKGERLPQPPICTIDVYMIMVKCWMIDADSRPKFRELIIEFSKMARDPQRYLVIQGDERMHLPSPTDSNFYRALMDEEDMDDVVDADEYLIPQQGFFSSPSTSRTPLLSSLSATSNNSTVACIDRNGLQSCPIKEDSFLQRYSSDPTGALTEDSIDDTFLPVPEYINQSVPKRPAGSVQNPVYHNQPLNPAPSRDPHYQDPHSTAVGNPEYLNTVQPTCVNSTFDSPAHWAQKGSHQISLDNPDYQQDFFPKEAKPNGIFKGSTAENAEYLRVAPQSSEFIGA
468 kinases (Homo sapiens, UniProt P12931), sequence (P12931 2-536 limits assumed): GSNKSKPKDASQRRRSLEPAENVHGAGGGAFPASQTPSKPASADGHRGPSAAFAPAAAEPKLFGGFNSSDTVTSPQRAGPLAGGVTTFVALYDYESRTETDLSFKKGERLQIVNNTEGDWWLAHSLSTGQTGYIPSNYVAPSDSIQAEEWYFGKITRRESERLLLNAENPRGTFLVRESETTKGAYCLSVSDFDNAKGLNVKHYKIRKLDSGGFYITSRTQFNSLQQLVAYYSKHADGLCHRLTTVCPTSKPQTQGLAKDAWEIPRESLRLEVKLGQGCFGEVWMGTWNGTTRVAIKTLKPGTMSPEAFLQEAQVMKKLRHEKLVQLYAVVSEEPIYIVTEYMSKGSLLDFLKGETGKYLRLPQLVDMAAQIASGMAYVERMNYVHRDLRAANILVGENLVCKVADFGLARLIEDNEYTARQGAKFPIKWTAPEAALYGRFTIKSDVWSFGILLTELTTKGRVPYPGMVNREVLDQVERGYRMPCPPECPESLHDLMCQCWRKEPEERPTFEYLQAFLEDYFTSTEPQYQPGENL

CCN(CC)CCNC(=O)c1c(C)[nH]c(/C=C2\C(=O)Nc3ccc(CCC(N)=O)cc32)c1C [Compound No. 16, (Z)-5-((5-(3-Amino-3-oxopropyl)-2-oxoindolin-3-ylidene)methyl)-N-(2-(diethylamino)ethyl)-2,4-dimethyl-1H-pyrrole-3-carboxamide]
inhibition at 0.1 µM (468 kinases [1]): 21%
inhibition at 0.1 µM (468 kinases [2]): 6%
inhibition at 0.1 µM (468 kinases [3]): 15%
inhibition at 0.1 µM (468 kinases [4]): 40%
inhibition at 0.1 µM (468 kinases [5]): 25%
inhibition at 0.1 µM (468 kinases [6]): 5%
inhibition at 0.1 µM (468 kinases [7]): 52%
inhibition at 0.1 µM (468 kinases [8]): 16%
inhibition at 0.1 µM (468 kinases [9]): 4%
inhibition at 0.1 µM (468 kinases [10]): 6%
inhibition at 0.1 µM (468 kinases [11]): 11%
inhibition at 0.1 µM (468 kinases [12]; ABL1 (F317I)-phosphorylated): 31%
inhibition at 0.1 µM (468 kinases [13]): 5%
inhibition at 0.1 µM (468 kinases [14]): 10%
inhibition at 0.1 µM (468 kinases [15]): 94%
inhibition at 0.1 µM (468 kinases [16]): 13%
inhibition at 0.1 µM (468 kinases [17]): 0%
inhibition at 0.1 µM (468 kinases [18]): 20%
inhibition at 0.1 µM (468 kinases [19]): 13%
inhibition at 0.1 µM (468 kinases [20]): 88%
inhibition at 0.1 µM (468 kinases [21]): 20%
inhibition at 0.1 µM (468 kinases [22]): 0%
inhibition at 0.1 µM (468 kinases [23]): 0%
inhibition at 0.1 µM (468 kinases [24]): 0%
inhibition at 0.1 µM (468 kinases [25]): 60%
inhibition at 0.1 µM (468 kinases [26]): 83%
inhibition at 0.1 µM (468 kinases [27]): 32%
inhibition at 0.1 µM (468 kinases [28]): 24%
inhibition at 0.1 µM (468 kinases [29]; RSK2(Kin.Dom.1-N-terminal)): 59%
inhibition at 0.1 µM (468 kinases [30]): 6%
inhibition at 0.1 µM (468 kinases [31]): 0%
inhibition at 0.1 µM (468 kinases [32]): 78%
inhibition at 0.1 µM (468 kinases [33]): 72%

CCN(CC)CCNC(=O)c1c(C)[nH]c(/C=C2\C(=O)Nc3ccc(CCO)cc32)c1C [Compound No. 10, (Z)—N-(2-(Diethylamino)ethyl)-5-((5-(2-hydroxyethyl)-2-oxoindolin-3-ylidene)methyl)-2,4-dimethyl-1H-pyrrole-3-carboxamide]
inhibition at 0.1 µM (468 kinases [1]): 9%
inhibition at 0.1 µM (468 kinases [2]): 0%
inhibition at 0.1 µM (468 kinases [3]): 14%
inhibition at 0.1 µM (468 kinases [4]): 0%
inhibition at 0.1 µM (468 kinases [5]): 87%
inhibition at 0.1 µM (468 kinases [6]): 0%
inhibition at 0.1 µM (468 kinases [7]): 0%
inhibition at 0.1 µM (468 kinases [8]): 17%
inhibition at 0.1 µM (468 kinases [9]): 0%
inhibition at 0.1 µM (468 kinases [10]): 0%
inhibition at 0.1 µM (468 kinases [11]): 0%
inhibition at 0.1 µM (468 kinases [12]; ABL1 (F317I)-nonphosphorylated): 8%
inhibition at 0.1 µM (468 kinases [12]; ABL1 (F317I)-phosphorylated): 0%
inhibition at 0.1 µM (468 kinases [13]): 10%
inhibition at 0.1 µM (468 kinases [14]): 3%
inhibition at 0.1 µM (468 kinases [15]): 96.5%
inhibition at 0.1 µM (468 kinases [16]): 0%
inhibition at 0.1 µM (468 kinases [17]): 3%
inhibition at 0.1 µM (468 kinases [18]): 0%
inhibition at 0.1 µM (468 kinases [19]): 1%
inhibition at 0.1 µM (468 kinases [20]): 89%
inhibition at 0.1 µM (468 kinases [21]): 10%
inhibition at 0.1 µM (468 kinases [22]): 0%
inhibition at 0.1 µM (468 kinases [23]): 0%
inhibition at 0.1 µM (468 kinases [24]): 2%
inhibition at 0.1 µM (468 kinases [25]): 55%
inhibition at 0.1 µM (468 kinases [26]): 61%
inhibition at 0.1 µM (468 kinases [27]): 32%
inhibition at 0.1 µM (468 kinases [28]): 12%
inhibition at 0.1 µM (468 kinases [29]; RSK2(Kin.Dom.1-N-terminal)): 39%
inhibition at 0.1 µM (468 kinases [29]; RSK2(Kin.Dom.2-C-terminal)): 54%
inhibition at 0.1 µM (468 kinases [30]): 15%
inhibition at 0.1 µM (468 kinases [31]): 0%
inhibition at 0.1 µM (468 kinases [32]): 71%
inhibition at 0.1 µM (468 kinases [33]): 79%

— patent US12435059B2, “AMP-activated protein kinase inhibitors and methods of making and using the same” (The Regents of the University of Colorado, priority 2019, dated 2025)
